Tested on: EpidermFT™ Skin Model (EFT-400) full thickness skin cultures
Assay: Affymetrix GeneChip HG U133 Plus 2.0 microarray global gene expression, agent-exposed vs untreated skin cultures
Type: cell-based, human
Conditions: 24 hr; for Direction / Fold change: Salicin 0.5%
[1] = 210424_s_at GOLGA8A /// GOLGA8B

SMILES: OCc1ccccc1O[C@@H]1O[C@H](CO)[C@@H](O)[C@H](O)[C@H]1O [Salicin, 2-(Hydroxymethyl)phenyl β-D-glucospyranoside]
- Fold change SPTLC2 (203128_at) (0.5% vs untreated, down): 3.78
- Fold change SPTLC2 (225095_at) (0.5% vs untreated, down): 3.474
- Fold change ST14 (216905_s_at) (0.5% vs untreated, down): 3.604
- Fold change STARD5 (213820_s_at) (0.5% vs untreated, down): 3.436
- Fold change STON2 (227461_at) (0.5% vs untreated, down): 3.288
- Fold change STOX2 (231969_at) (0.5% vs untreated, down): 3.5
- Fold change STYK1 (220030_at) (0.5% vs untreated, down): 3.584
- Fold change SYK (207540_s_at) (0.5% vs untreated, down): 3.163
- Fold change SYNE2 (202761_s_at) (0.5% vs untreated, down): 3.62
- Fold change SYTL1 (227134_at) (0.5% vs untreated, down): 3.294
- Fold change TACC2 (211382_s_at) (0.5% vs untreated, down): 3.335
- Fold change TGFA (205015_s_at) (0.5% vs untreated, down): 3.134
- Fold change TGM3 (206004_at) (0.5% vs untreated, down): 3.783
- Fold change THBD (203887_s_at) (0.5% vs untreated, down): 3.137
- Fold change TIAM1 (206409_at) (0.5% vs untreated, down): 3.792
- Fold change TM7SF3 (217974_at) (0.5% vs untreated, down): 3.241
- Fold change TMEM54 (225536_at) (0.5% vs untreated, down): 3.354
- Fold change TMEM184A (1558281_a_at) (0.5% vs untreated, down): 3.052
- Fold change TPD52L1 (203786_s_at) (0.5% vs untreated, down): 3.196
- Fold change TRIM7 (223694_at) (0.5% vs untreated, down): 3.302
- Fold change TRIM7 (239694_at) (0.5% vs untreated, down): 3.174
- Fold change TRIM14 (203147_s_at) (0.5% vs untreated, down): 3.14
- Fold change TRIM14 (203148_s_at) (0.5% vs untreated, down): 3.658
- Fold change TRIM25 (224806_at) (0.5% vs untreated, down): 3.869
- Fold change TST (209605_at) (0.5% vs untreated, down): 3.038
- Fold change UBL3 (201534_s_at) (0.5% vs untreated, down): 3.354
- Fold change UGT1A1 /// UGT1A10 /// UGT1A4 /// UGT1A6 /// UGT1A8 /// UGT1A9 (207126_x_at) (0.5% vs untreated, down): 3.18
- Fold change UPK1B (210065_s_at) (0.5% vs untreated, down): 3.412
- Fold change USP2 (229337_at) (0.5% vs untreated, down): 3.391
- Fold change USP6NL (238164_at) (0.5% vs untreated, down): 3.19
- Fold change VAMP8 (202546_at) (0.5% vs untreated, down): 3.922
- Fold change VWA5A (210102_at) (0.5% vs untreated, down): 3.897
- Fold change WNT3 (229103_at) (0.5% vs untreated, down): 3.218
- Fold change XG (1554062_at) (0.5% vs untreated, down): 3.378
- Fold change ZBTB7C (227782_at) (0.5% vs untreated, down): 3.288
- Fold change ZNF91 (206059_at) (0.5% vs untreated, down): 3.205
- Direction (63825_at ABHD2): up
- Fold change (63825_at ABHD2): 2.157
- Direction (201467_s_at NQO1): up
- Fold change (201467_s_at NQO1): 2.122
- Direction (201468_s_at NQO1): up
- Fold change (201468_s_at NQO1): 2.093
- Direction (202724_s_at FOXO1): up
- Fold change (202724_s_at FOXO1): 2.098
- Direction (202952_s_at ADAM12): up
- Fold change (202952_s_at ADAM12): 2.155
- Direction (203066_at GALNAC4S-6ST): up
- Fold change (203066_at GALNAC4S-6ST): 2.113
- Direction (203426_s_at IGFBP5): up
- Fold change (203426_s_at IGFBP5): 2.075
- Direction (203518_at LYST): up
- Fold change (203518_at LYST): 2.15
- Direction (203740_at MPHOSPH6): up
- Fold change (203740_at MPHOSPH6): 2.138
- Direction (203853_s_at GAB2): up
- Fold change (203853_s_at GAB2): 2.114
- Direction (204115_at GNG11): up
- Fold change (204115_at GNG11): 2.108
- Direction (204396_s_at GRK5): up
- Fold change (204396_s_at GRK5): 2.087
- Direction (204420_at FOSL1): up
- Fold change (204420_at FOSL1): 2.141
- Direction (204456_s_at GAS1): up
- Fold change (204456_s_at GAS1): 2.089
- Direction (204742_s_at PDS5B): up
- Fold change (204742_s_at PDS5B): 2.139
- Direction (204790_at SMAD7): up
- Fold change (204790_at SMAD7): 2.151
- Direction (205110_s_at FGF13): up
- Fold change (205110_s_at FGF13): 2.158
- Direction (208415_x_at ING1): up
- Fold change (208415_x_at ING1): 2.15
- Direction (209436_at SPON1): up
- Fold change (209436_at SPON1): 2.145
- Direction (210145_at PLA2G4A): up
- Fold change (210145_at PLA2G4A): 2.072
- Direction (210355_at PTHLH): up
- Fold change (210355_at PTHLH): 2.144
- Direction [1]: up
- Fold change [1]: 2.127
- Direction (210519_s_at NQO1): up
- Fold change (210519_s_at NQO1): 2.116
- Direction (210665_at TFPI): up
- Fold change (210665_at TFPI): 2.091
- Direction (210841_s_at NRP2): up
- Fold change (210841_s_at NRP2): 2.133
- Direction (211725_s_at BID): up
- Fold change (211725_s_at BID): 2.092
- Direction (211981_at COL4A1): up
- Fold change (211981_at COL4A1): 2.121
- Direction (212298_at NRP1): up
- Fold change (212298_at NRP1): 2.073
- Direction (212554_at CAP2): up
- Fold change (212554_at CAP2): 2.082
- Direction (213032_at NFIB): up
- Fold change (213032_at NFIB): 2.146
- Direction (213033_s_at NFIB): up
- Fold change (213033_s_at NFIB): 2.125
- Direction (213093_at PRKCA): up
- Fold change (213093_at PRKCA): 2.125
- Direction (213790_at ADAM12): up
- Fold change (213790_at ADAM12): 2.085
- Direction (213994_s_at SPON1): up
- Fold change (213994_s_at SPON1): 2.086
- Direction (214014_at CDC42EP2): up
- Fold change (214014_at CDC42EP2): 2.119
- Direction (214211_at FTH1): up
- Fold change (214211_at FTH1): 2.154
- Direction (214913_at ADAMTS3): up
- Fold change (214913_at ADAMTS3): 2.145
- Direction (215012_at ZNF451): up
- Fold change (215012_at ZNF451): 2.114
- Direction (215785_s_at CYFIP2): up
- Fold change (215785_s_at CYFIP2): 2.107
